How the values were obtained:
[1] = test system: TLR7 induced IL-6 secretion in human mononuclear cells (PBMC's); experiment: TLR7 induced IL-6 in human PBMC's; format: cell-based; conditions: Homo sapiens, PBMC, TLR7 specific ligand 2 uM overnight, IL-6 AlphaLISA
Method: TLR7 Induced IL-6 in Human PBMC's
Human PBMC assay was used as one of the functional assaya to monitor the activity of IRAK1 and IRAK4 small molecule inhibitors on TLR7 induced IL-6 secretion in human mononuclear cells (PBMC's). Human PBMCs were prepared from buffy coats (whole blood enriched with leukocytes and platelets) obtained from healthy volunteers used either fresh or frozen are plated in assay media (RPMI+2% P/S/L-glu+10% HI-FBS) and pre-treated with compounds in DMSO/media (range of concentrations from 25 uM to 0.4 nM) or controls (0.25% DMSO) for 30 minutes at 37° C. in assay media. Following pre-treatment with IRAK1 and IRAK4 inhibitors, PBMC's were stimulated with TLR7 specific ligand (2 uM) overnight (16-18 hrs) at 37° C. After incubation supernatant was transferred to 384 well PE AlphaPlate-384 (6005350) and IL-6 is quantified using Perkin Elmer IL-6 Alpha LISA kit (AL223C). Plates were read on an Envision® plate reader with Alpha Technology®.

[2] = biological target: T1, IRAK4 (Homo sapiens, UniProt Q9NWZ3); experiment: IRAK4 enzymatic assay (ADP-Glo luminescence); format: biochemical; conditions: human recombinant His-TEV-IRAK4 (1-460), STK1-biotin peptide substrate
T1 construct: His-TEV-IRAK4 (1-460); His (N); TEV cleavage site (N)
T1 sequence (Q9NWZ3 1-460): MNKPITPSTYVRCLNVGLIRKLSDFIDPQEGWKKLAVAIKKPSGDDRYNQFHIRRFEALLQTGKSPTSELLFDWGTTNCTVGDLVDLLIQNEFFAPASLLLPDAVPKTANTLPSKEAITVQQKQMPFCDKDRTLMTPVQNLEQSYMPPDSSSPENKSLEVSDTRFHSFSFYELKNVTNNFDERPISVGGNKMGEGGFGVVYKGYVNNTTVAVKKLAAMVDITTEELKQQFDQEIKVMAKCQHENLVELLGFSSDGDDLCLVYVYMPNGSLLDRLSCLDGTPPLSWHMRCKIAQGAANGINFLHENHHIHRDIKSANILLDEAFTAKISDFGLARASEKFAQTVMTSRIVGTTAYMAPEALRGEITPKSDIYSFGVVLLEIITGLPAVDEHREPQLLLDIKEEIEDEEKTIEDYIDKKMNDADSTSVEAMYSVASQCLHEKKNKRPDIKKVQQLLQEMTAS
Method: IRAK4 is a human purified recombinant enzyme (His-TEV-IRAK4 (1-460)).
In this assay, IRAK4 hydrolyses ATP, autophosphorylates and phosphorylates a Serine/Threonine generic peptidic substrate (STK: 61ST1BLC from CisBio International). Measurement of IRAK-4 inhibition is performed in 384-well format based on a luminescence assay (ADP-Glo™ Kinase Assay from Promega). Purified human recombinant IRAK4 ([…]) and serial diluted compounds in DMSO (range of concentration from 10 μM to 0.5 nM) or controls (1% DMSO) are incubated for 15 minutes at RT in assay buffer containing 50 mM Hepes pH 7.0, Fatty acid-free BSA 0.1%, Dithiothreitol (DTT) 2 mM, MgCl2 10 mM, EGTA 0.5 mM, Triton X-100 0.01%, MnCl2 5 mM. The kinase reaction is then initiated by the addition of ATP ([…]) and the peptidic substrate STK1-biotin peptide (300 nM). After 2 hours of incubation at RT, the reaction is stopped and the unconsumed ATP depleted by the addition of ADP-Glo™ Reagent according to supplier instructions. After 40 minutes of incubation at RT, the Kinase Detection Reagent is then added to the assay plate according to supplier instructions. After 20 minutes of incubation at RT, the luminescence signal is measured with a plate-reading luminometer (PerkinElmer Envision or equivalent reader).

[3] = biological target: T2, IRAK1 (Homo sapiens, UniProt P51617); experiment: IRAK1 enzymatic assay (ADP-Glo luminescence); format: biochemical; conditions: human recombinant His-TEV-IRAK1 (194-712), ATP 1 μM; read-out: IRAK 1 IC50
T2 construct: His-TEV-IRAK1 (194-712); His (N); TEV cleavage site (N)
Method: IRAK1 is a human purified recombinant enzyme (His-TEV-IRAK1 (194-712))
In this assay, IRAK1 hydrolyses ATP and autophosphorylates. Measurement of IRAK-1 inhibition is performed in 384-well format based on luminescence assay (ADP-Glo™ Kinase Assay from Promega). Purified human recombinant IRAK1 ([…]) and serial diluted compounds in DMSO (range of concentration from 10 μM to 0.5 nM) or controls (1% DMSO) are incubated for 15 minutes at RT in assay buffer containing 50 mM Hepes pH 7.0, Fatty acid-free BSA 0.1%, Dithiothreitol (DTT) 2 mM, MgCl2 10 mM, EGTA 0.5 mM, Triton X-100 0.01%. The kinase reaction is then initiated by the addition of ATP at a concentration of 1 μM. After 2 hours of incubation at RT, the reaction is stopped and the unconsumed ATP depleted by the addition of ADP-Glo™ Reagent according to supplier instructions. After 40 minutes of incubation at RT, the Kinase Detection Reagent is then added to the assay plate according to supplier instructions. After 20 minutes of incubation at RT, the luminescence signal is measured with a luminometer (PerkinElmer Envision or equivalent reader).

T2 sequence (P51617 194-712): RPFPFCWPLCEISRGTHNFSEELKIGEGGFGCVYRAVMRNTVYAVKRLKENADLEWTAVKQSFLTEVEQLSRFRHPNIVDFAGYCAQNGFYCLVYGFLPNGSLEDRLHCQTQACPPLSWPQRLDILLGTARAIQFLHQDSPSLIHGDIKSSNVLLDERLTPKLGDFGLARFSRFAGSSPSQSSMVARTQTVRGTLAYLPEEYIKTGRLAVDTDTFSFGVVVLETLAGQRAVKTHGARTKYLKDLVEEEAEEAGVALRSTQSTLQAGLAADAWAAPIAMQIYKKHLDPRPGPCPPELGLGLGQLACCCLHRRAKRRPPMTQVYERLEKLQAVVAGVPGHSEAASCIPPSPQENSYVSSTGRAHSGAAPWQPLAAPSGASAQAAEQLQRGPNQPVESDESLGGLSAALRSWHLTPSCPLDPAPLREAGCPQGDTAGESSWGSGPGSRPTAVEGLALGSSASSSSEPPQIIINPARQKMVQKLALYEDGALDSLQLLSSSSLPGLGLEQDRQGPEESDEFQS

Row | Compound | IC50 [2] | IC50 [3] | melting point | IC50 [1]
1 | C=CCCn1/c(=N/C(=O)c2cccc(C(F)(F)F)c2)[nH]c2cc(C3CCN(C)C3=O)ccc21 (stereo not drawn) [Compound 17, N-[1-But-3-enyl-5-(1-methyl-2-oxo-pyrrolidin-3-yl)-1,3-dihydro-benzoimidazol-(2E)-ylidene]-3-trifluoromethyl-benzamide] | ≤ 100 nM | 100 to 1000 nM |  | 100 to 1000 nM
2 | C=CCCn1/c(=N/C(=O)c2cccc(C(F)(F)F)c2)[nH]c2cc(C3CCCN(C)C3=O)ccc21 (stereo not drawn) [Compound 18, N-[1-But-3-enyl-5-(1-methyl-2-oxo-piperidin-3-yl)-1,3-dihydro-benzoimidazol-(2E)-ylidene]-3-trifluoromethyl-benzamide] | ≤ 100 nM | 100 to 1000 nM |  | 100 to 1000 nM
3 | C=CCn1/c(=N/C(=O)c2cccc(C(F)(F)F)c2)[nH]c2cc(C3CCN(C)C3=O)ccc21 (stereo not drawn) [Compound 19, N-[1-Allyl-5-(1-methyl-2-oxo-pyrrolidin-3-yl)-1,3-dihydro-benzoimidazol-(2E)-ylidene]-3-trifluoromethyl-benzamide] | ≤ 100 nM | 100 to 1000 nM |  | 100 to 1000 nM
4 | CN1CCC(c2ccc3c(c2)[nH]/c(=N\C(=O)c2cccc(C(F)(F)F)c2)n3CC(O)CO)C1=O (stereo not drawn) [Compound 20, N-[1-(2,3-Dihydroxy-propyl)-5-(1-methyl-2-oxo-pyrrolidin-3-yl)-1,3-dihydro-benzoimidazol-(2E)-ylidene]-3-trifluoromethyl-benzamide] | ≤ 100 nM | 100 to 1000 nM |  | 100 to 1000 nM
5 | CN1CCC(c2ccc3c(c2)[nH]/c(=N\C(=O)c2cccc(C(F)(F)F)c2)n3CCC(O)CO)C1=O (stereo not drawn) [Compound 21, N-[1-(3,4-Dihydroxy-butyl)-5-(1-methyl-2-oxo-pyrrolidin-3-yl)-1,3-dihydro-benzoimidazol-(2E)-ylidene]-3-trifluoromethyl-benzamide] | ≤ 100 nM | 100 to 1000 nM |  | ≤ 100 nM
6 | CN1CCCC(c2ccc3c(c2)[nH]/c(=N\C(=O)c2cccc(C(F)(F)F)c2)n3CCC(O)CO)C1=O (stereo not drawn) [Compound 22, N-[1-(3,4-Dihydroxy-butyl)-5-(1-methyl-2-oxo-piperidin-3-yl)-1,3-dihydro-benzoimidazol-(2E)-ylidene]-3-trifluoromethyl-benzamide] | ≤ 100 nM | 100 to 1000 nM |  | ≤ 100 nM
7 | CN1CC(c2ccc3c(c2)nc(NC(=O)c2cccc(C(F)(F)F)c2)n3CCCO)C(C)(C)C1=O (stereo not drawn) [Compound 25, N-[1-(3-Hydroxy-propyl)-5-(1,4,4-trimethyl-5-oxo-pyrrolidin-3-yl)-1H-benzoimidazol-2-yl]-3-trifluoromethyl-benzamide] | ≤ 100 nM | ≤ 100 nM | 104 to 106 °C | 100 to 1000 nM
8 | CN1C[C@H](c2ccc3c(c2)nc(NC(=O)c2cccc(C(F)(F)F)c2)n3CCCO)C(C)(C)C1=O [Compound 25b, N-[1-(3-hydroxypropyl)-5-[(3R)-1,4,4-trimethyl-5-oxopyrrolidin-3-yl]-1H-1,3-benzodiazol-2-yl]-3-(trifluoromethyl)benzamide] | ≤ 100 nM | 100 to 1000 nM |  | 100 to 1000 nM
9 | CN1CCC(C)(c2ccc3c(c2)nc(NC(=O)c2cccc(C(F)(F)F)c2)n3CCCO)C1=O (stereo not drawn) [Compound 29, N-[5-(1,3-Dimethyl-2-oxo-pyrrolidin-3-yl)-1-(3-hydroxy-propyl)-1H-benzoimidazol-2-yl]-3-trifluoromethyl-benzamide] | ≤ 100 nM | 1000 to 10000 nM | 72 to 74 °C | 
10 | CN1C(=O)CCC1(C)c1ccc2c(c1)nc(NC(=O)c1cccc(C(F)F)c1)n2CCCO (stereo not drawn) [Compound 31, 3-Difluoromethyl-N-[5-(1,2-dimethyl-5-oxo-pyrrolidin-2-yl)-1-(3-hydroxy-propyl)-1H-benzoimidazol-2-yl]-benzamide] | ≤ 100 nM | 100 to 1000 nM |  | 1000 to 10000 nM

Second part, led by results:

Row | IC50 [2] | IC50 [3] | melting point | Compound | IC50 [1]
11 | ≤ 100 nM | 100 to 1000 nM |  | CN1CCC(c2ccc3c(c2)nc(NC(=O)c2cccc(C(F)(F)F)c2)n3CCCO)C1=O (stereo not drawn) [Compound 23, N-[1-(3-hydroxypropyl)-5-(1-methyl-2-oxopyrrolidin-3-yl)-1H-1,3-benzodiazol-2-yl]-3-(trifluoromethyl)benzamide] | ≤ 100 nM
12 | ≤ 100 nM | 100 to 1000 nM |  | CN1CC[C@H](c2ccc3c(c2)nc(NC(=O)c2cccc(C(F)(F)F)c2)n3CCCO)C1=O [Compound 23b, N-[1-(3-hydroxypropyl)-5-[(3R)-1-methyl-2-oxopyrrolidin-3-yl]-1H-1,3-benzodiazol-2-yl]-3-(trifluoromethyl) benzamide] | 100 to 1000 nM
13 | ≤ 100 nM | 100 to 1000 nM | 166 to 168 °C | CN1CCC(c2ccc3c(c2)nc(NC(=O)c2cccc(C(F)F)c2)n3CCCO)C1=O (stereo not drawn) [Compound 24, 3-(difluoromethyl)-N-[1-(3-hydroxypropyl)-5-(1-methyl-2-oxopyrrolidin-3-yl)-1H-1,3-benzodiazol-2-yl]benzamide] | ≤ 100 nM
14 | ≤ 100 nM | 100 to 1000 nM | 118 to 120 °C | CN1CCOC(c2ccc3c(c2)nc(NC(=O)c2cccc(C(F)F)c2)n3CC(C)(F)CO)C1=O (stereo not drawn) [Compound 26, 3-Difluoromethyl-N-[1-(2-fluoro-3-hydroxy-2-methyl-propyl)-5-(4-methyl-3-oxo-morpholin-2-yl)-1H-benzoimidazol-2-yl]-benzamide] | 100 to 1000 nM
15 | ≤ 100 nM |  | 78 to 81 °C | CN1CCC(C)(c2ccc3c(c2)nc(NC(=O)c2cccc(C(F)F)c2)n3CCCO)C1=O (stereo not drawn) [Compound 30, 3-Difluoromethyl-N-[5-(1,3-dimethyl-2-oxo-pyrrolidin-3-yl)-1-(3-hydroxy-propyl)-1H-benzoimidazol-2-yl]-benzamide] | 1000 to 10000 nM
16 | ≤ 100 nM | 100 to 1000 nM |  | CN1CC[C@@](C)(c2ccc3c(c2)nc(NC(=O)c2cccc(C(F)F)c2)n3CCCO)C1=O [Compound 30b, N-{5-[(3S)-1,3-dimethyl-2-oxopyrrolidin-3-yl]-1-(3-hydroxypropyl)-1H-1,3-benzodiazol-2-yl}-3-(diifluoromethyl)benzamide] | 1000 to 10000 nM
17 | ≤ 100 nM | 1000 to 10000 nM |  | CN1C(=O)CC[C@@]1(C)c1ccc2c(c1)nc(NC(=O)c1cccc(C(F)F)c1)n2CCCO [Compound 31b, 3-(difluoromethyl)-N-{5-[(2S)-1,2-dimethyl-5-oxopyrrolidin-2-yl]-1-(3-hydroxypropyl)-1H-1,3-benzodiazol-2-yl}benzamide] | 1000 to 10000 nM

From US9969710B2, “Heteroaryl compounds as IRAK inhibitors and uses thereof” (Merck Patent GmbH, priority 2015, dated 2018)
